Assay type in all cases: binding
Experiment [1] has as its target T1, panel of 442 kinases (Homo sapiens, UniProt Q9UHD2).
T1 construct: purchased KINOMEscan
T1 sequence (Q9UHD2 1-729): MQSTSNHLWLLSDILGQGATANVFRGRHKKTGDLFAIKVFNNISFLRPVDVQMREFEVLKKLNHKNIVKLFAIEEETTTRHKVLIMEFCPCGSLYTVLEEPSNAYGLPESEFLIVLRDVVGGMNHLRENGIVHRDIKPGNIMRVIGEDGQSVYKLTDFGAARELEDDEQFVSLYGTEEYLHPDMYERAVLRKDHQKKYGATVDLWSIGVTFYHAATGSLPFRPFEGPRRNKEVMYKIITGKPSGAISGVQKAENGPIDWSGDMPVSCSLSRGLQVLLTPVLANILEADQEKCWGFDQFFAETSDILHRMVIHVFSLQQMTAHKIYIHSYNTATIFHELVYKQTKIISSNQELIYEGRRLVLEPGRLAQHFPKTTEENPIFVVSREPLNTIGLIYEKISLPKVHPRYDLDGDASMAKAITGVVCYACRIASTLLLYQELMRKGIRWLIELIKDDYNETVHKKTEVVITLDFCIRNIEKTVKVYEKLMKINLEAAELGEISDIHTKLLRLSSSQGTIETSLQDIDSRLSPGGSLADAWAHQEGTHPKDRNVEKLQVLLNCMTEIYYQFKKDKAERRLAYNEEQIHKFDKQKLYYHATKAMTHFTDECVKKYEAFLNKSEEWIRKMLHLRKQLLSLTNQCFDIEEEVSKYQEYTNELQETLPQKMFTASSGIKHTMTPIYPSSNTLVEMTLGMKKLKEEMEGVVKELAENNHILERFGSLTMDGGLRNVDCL
Conditions: kinase TBK1; compound concentration 10 µM. An excerpt:
(§1) We assessed the selectivity of members of this scaffold using the KINOMEscan methodology across a near comprehensive panel of 442 kinases [[18,27]].

For experiment [2], the target named is T2, panel of 442 kinases (Homo sapiens, UniProt P00533, T790M).
T2 construct: purchased KINOMEscan
T2 sequence (P00533 25-1210 T790M): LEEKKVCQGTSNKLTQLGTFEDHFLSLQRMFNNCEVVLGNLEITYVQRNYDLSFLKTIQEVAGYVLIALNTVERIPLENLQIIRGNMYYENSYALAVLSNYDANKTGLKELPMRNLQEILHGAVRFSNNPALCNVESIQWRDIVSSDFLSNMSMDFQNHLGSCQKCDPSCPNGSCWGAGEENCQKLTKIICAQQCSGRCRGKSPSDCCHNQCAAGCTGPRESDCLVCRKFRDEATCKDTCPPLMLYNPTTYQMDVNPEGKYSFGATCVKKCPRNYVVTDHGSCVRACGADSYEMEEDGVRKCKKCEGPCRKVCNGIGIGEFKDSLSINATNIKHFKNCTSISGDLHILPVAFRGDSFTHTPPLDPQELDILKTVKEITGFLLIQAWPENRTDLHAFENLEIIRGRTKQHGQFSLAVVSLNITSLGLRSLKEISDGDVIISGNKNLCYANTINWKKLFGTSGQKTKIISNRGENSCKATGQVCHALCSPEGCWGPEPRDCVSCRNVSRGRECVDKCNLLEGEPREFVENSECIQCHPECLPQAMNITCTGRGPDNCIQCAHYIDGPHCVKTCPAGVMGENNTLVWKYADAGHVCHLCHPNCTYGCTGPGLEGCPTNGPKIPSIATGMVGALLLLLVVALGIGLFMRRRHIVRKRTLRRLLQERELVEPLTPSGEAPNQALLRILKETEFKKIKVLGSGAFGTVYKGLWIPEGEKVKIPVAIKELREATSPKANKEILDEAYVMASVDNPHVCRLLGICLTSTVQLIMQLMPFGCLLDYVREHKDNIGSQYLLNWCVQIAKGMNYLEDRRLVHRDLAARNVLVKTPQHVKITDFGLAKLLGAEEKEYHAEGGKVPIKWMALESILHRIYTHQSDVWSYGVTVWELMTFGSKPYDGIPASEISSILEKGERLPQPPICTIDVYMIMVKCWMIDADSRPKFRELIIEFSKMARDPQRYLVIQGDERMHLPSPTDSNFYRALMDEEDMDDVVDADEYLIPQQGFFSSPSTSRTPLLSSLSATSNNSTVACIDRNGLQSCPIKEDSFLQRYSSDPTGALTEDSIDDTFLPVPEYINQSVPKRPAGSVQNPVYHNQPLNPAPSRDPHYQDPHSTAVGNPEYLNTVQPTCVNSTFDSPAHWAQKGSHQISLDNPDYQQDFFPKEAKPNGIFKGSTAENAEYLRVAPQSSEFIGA
Conditions: Compound Concentration 10 µM.
Excerpt: as §1

Experiment [3] deals with T3, panel of 442 kinases (Homo sapiens, UniProt P42336, E545A).
T3 construct: purchased KINOMEscan
T3 sequence (P42336 whole entry E545A): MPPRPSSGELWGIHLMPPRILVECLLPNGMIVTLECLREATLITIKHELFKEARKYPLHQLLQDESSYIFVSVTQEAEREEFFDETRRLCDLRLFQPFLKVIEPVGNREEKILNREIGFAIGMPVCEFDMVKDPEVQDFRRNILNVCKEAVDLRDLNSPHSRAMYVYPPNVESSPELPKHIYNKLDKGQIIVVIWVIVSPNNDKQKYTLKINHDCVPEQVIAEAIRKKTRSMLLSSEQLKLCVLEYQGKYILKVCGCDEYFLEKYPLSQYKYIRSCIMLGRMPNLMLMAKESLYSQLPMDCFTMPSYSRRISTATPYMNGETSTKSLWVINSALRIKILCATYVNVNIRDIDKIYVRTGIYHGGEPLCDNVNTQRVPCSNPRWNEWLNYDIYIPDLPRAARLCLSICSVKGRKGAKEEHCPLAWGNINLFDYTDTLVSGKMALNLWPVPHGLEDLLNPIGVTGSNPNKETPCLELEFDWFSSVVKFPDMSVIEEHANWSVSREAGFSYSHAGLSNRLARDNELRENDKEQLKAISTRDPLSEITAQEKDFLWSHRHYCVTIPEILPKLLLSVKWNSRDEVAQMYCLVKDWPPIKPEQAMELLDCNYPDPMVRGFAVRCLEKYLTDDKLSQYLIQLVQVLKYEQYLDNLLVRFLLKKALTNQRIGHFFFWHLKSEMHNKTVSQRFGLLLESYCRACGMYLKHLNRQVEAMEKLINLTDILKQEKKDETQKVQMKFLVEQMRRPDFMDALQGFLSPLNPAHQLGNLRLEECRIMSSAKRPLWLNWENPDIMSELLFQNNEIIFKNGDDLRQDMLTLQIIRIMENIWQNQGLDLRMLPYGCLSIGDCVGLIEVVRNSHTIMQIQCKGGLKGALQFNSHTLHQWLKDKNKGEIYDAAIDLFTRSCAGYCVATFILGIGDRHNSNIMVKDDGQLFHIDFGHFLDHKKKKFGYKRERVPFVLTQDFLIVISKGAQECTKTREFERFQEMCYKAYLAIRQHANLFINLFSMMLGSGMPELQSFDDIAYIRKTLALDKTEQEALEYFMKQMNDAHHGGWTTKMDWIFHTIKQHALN
The conditions noted are these: Compound Concentration 10 µM.
Excerpt: as §1

As for `COc1cc(C(=O)N2CCC(N3CCN(C)CC3)CC2)ccc1Nc1ncc2c(n1)N(C)c1ccccc1C(=O)N2C` [15 (LRRK2-IN-1)], the “% Ctrl, TBK1” value in experiment [1] was 97 % Ctrl. Moreover, in experiment [2], the “KINOMEscan: EGFR(T790M)” value came to 88. Also, in experiment [3], the “KINOMEscan: PIK3CA(E545A)” value stood at 98.
For `COc1cc(C(=O)N2CCC(N3CCN(C)CC3)CC2)ccc1Nc1ncc2c(n1)N1CCc3cccc(c31)C(=O)N2C` [Compound 24], in that order: 98 % Ctrl, 76 and 68.
On to `COc1cc(C(=O)N2CCC(N3CCN(C)CC3)CC2)ccc1Nc1ncc2c(n1)N(C1CCCC1)c1ccccc1C(=O)N2C` [Compound 25, 11-cyclopentyl-2-((2-methoxy-4-(4-(4-methylpiperazin-1-yl)piperidine-1-carbonyl)phenyl)amino)-5-methyl-5H-benzo[e]pyrimido[5,4-b][1,4]diazepin-6(11H)-one], for which the “% Ctrl, TBK1” value in experiment [1] is 100 % Ctrl. For the same compound, the “KINOMEscan: EGFR(T790M)” value in experiment [2] turned out to be 89. In addition, the “KINOMEscan: PIK3CA(E545A)” value in experiment [3] was found to be 85.
The like results for `CCOc1cc(C(=O)N2CCC(N3CCN(C)CC3)CC2)ccc1Nc1ncc2c(n1)N(C1CCCC1)c1ccccc1C(=O)N2C` [Compound 26] were, in that order, 100 % Ctrl, 100 and 91.

For the origin of these results see article PMC3914206.
